What was measured:
Assay type in all cases: functional
[1] = system: NUGC-3; assay: Antiproliferative activity against human NUGC3 cells at 0.3 uM by SRB assay
[2] = system: NUGC-3; assay: Antiproliferative activity against human NUGC3 cells at 0.1 uM by SRB assay
[3] = system: NUGC-3; assay: Antiproliferative activity against human NUGC3 cells at 1 uM by SRB assay
[4] = system: NUGC-3; assay: Antiproliferative activity against human NUGC3 cells at 10 uM by SRB assay
[5] = system: NUGC-3; assay: Antiproliferative activity against human NUGC3 cells at 3 uM by SRB assay
[6] = system: MDA-MB-231; assay: Antiproliferative activity against human MDA-MB-231 cells at 0.1 uM by SRB assay
[7] = system: MDA-MB-231; assay: Antiproliferative activity against human MDA-MB-231 cells at 0.3 uM by SRB assay
[8] = system: MDA-MB-231; assay: Antiproliferative activity against human MDA-MB-231 cells at 1 uM by SRB assay
[9] = system: MDA-MB-231; assay: Antiproliferative activity against human MDA-MB-231 cells at 10 uM by SRB assay
[10] = system: MDA-MB-231; assay: Antiproliferative activity against human MDA-MB-231 cells at 3 uM by SRB assay
[11] = system: ACHN; assay: Antiproliferative activity against human ACHN cells at 0.1 uM by SRB assay
[12] = system: ACHN; assay: Antiproliferative activity against human ACHN cells at 1 uM by SRB assay
[13] = system: ACHN; assay: Antiproliferative activity against human ACHN cells at 0.3 uM by SRB assay
[14] = system: ACHN; assay: Antiproliferative activity against human ACHN cells at 3 uM by SRB assay
[15] = system: ACHN; assay: Antiproliferative activity against human ACHN cells at 10 uM by SRB assay
[16] = system: NCI-H23; assay: Antiproliferative activity against human NCI-H23 cells at 0.3 uM by SRB assay
[17] = system: NCI-H23; assay: Antiproliferative activity against human NCI-H23 cells at 0.1 uM by SRB assay
[18] = system: NCI-H23; assay: Antiproliferative activity against human NCI-H23 cells at 3 uM by SRB assay
[19] = system: NCI-H23; assay: Antiproliferative activity against human NCI-H23 cells at 1 uM by SRB assay
[20] = system: NCI-H23; assay: Antiproliferative activity against human NCI-H23 cells at 10 uM by SRB assay
[21] = system: PC-3; assay: Antiproliferative activity against human PC3 cells at 0.1 uM by SRB assay
[22] = system: PC-3; assay: Antiproliferative activity against human PC3 cells at 1 uM by SRB assay
[23] = system: PC-3; assay: Antiproliferative activity against human PC3 cells at 0.3 uM by SRB assay
[24] = system: PC-3; assay: Antiproliferative activity against human PC3 cells at 3 uM by SRB assay
[25] = system: HCT-15; assay: Antiproliferative activity against human HCT15 cells at 0.1 uM by SRB assay
[26] = system: PC-3; assay: Antiproliferative activity against human PC3 cells at 10 uM by SRB assay
[27] = system: HCT-15; assay: Antiproliferative activity against human HCT15 cells at 0.3 uM by SRB assay
[28] = system: HCT-15; assay: Antiproliferative activity against human HCT15 cells at 3 uM by SRB assay
[29] = system: HCT-15; assay: Antiproliferative activity against human HCT15 cells at 1 uM by SRB assay
[30] = system: HCT-15; assay: Antiproliferative activity against human HCT15 cells at 10 uM by SRB assay
[31] = system: NCI-H23; assay: Antiproliferative activity against human NCI-H23 cells by SRB assay
[32] = system: NUGC-3; assay: Antiproliferative activity against human NUGC3 cells by SRB assay
[33] = system: HCT-15; assay: Antiproliferative activity against human HCT15 cells by SRB assay
[34] = system: ACHN; assay: Antiproliferative activity against human ACHN cells by SRB assay
[35] = system: MDA-MB-231; assay: Antiproliferative activity against human MDA-MB-231 cells by SRB assay
[36] = system: PC-3; assay: Antiproliferative activity against human PC3 cells by SRB assay

| SMILES | growth, % of control at 0.3 µM [1] | growth, % of control at 0.1 µM [2] | growth, % of control at 1 µM [3] | growth, % of control at 10 µM [4] | growth, % of control at 3 µM [5] | growth, % of control at 0.1 µM [6] | growth, % of control at 0.3 µM [7] | growth, % of control at 1 µM [8] | growth, % of control at 10 µM [9] | growth, % of control at 3 µM [10] | growth, % of control at 0.1 µM [11] | growth, % of control at 1 µM [12] | growth, % of control at 0.3 µM [13] | growth, % of control at 3 µM [14] | growth, % of control at 10 µM [15] | growth, % of control at 0.3 µM [16] | growth, % of control at 0.1 µM [17] | growth, % of control at 3 µM [18] | growth, % of control at 1 µM [19] | growth, % of control at 10 µM [20] | other results |
| --- | --- | --- | --- | --- | --- | --- | --- | --- | --- | --- | --- | --- | --- | --- | --- | --- | --- | --- | --- | --- | --- |
| C=CC[N+](CC)(CC)CCN(C)C(=O)CCCCCCCCCCCCC | 45.3% | 109% | 1.1% | -7.8% | -3.5% | 93.2% | 82.5% | 28.7% | -11.6% | 6.6% | 69% | 16.8% | 42.6% | 8.6% | -9% | 74.2% | 88% | 7.8% | 24.2% | -10% | growth, % of control at 0.1 µM [21]: 91.2%; growth, % of control at 1 µM [22]: 12.2%; growth, % of control at 0.3 µM [23]: 74.9%; growth, % of control at 3 µM [24]: -6%; growth, % of control at 0.1 µM [25]: 97.4%; growth, % of control at 10 µM [26]: -21.6%; growth, % of control at 0.3 µM [27]: 96.8%; growth, % of control at 3 µM [28]: 85.1%; growth, % of control at 1 µM [29]: 96.3%; growth, % of control at 10 µM [30]: 57.9%; GI50 [31]: 240 nM; GI50 [32]: 140 nM; GI50 [33]: > 10000 nM; GI50 [34]: 100 nM; GI50 [35]: 300 nM; GI50 [36]: 210 nM |
| C=CC[N+](C)(C)CC(C)(C)CNC(=O)CCCCCCCCCCCCCCCCC | 89.9% | 92.3% | 65.2% | -5.72% | 28.5% | 94.3% | 88.8% | 80.8% | 25% | 48.3% | 93.2% | 85.1% | 93.5% | 60.4% | 3.8% | 93.7% | 92.8% | 29.4% | 75.3% | -40% | growth, % of control at 0.1 µM [21]: 94.9%; growth, % of control at 1 µM [22]: 33.7%; growth, % of control at 0.3 µM [23]: 91%; growth, % of control at 3 µM [24]: -27.7%; growth, % of control at 0.1 µM [25]: 102%; growth, % of control at 10 µM [26]: -45.4%; growth, % of control at 0.3 µM [27]: 99.8%; growth, % of control at 3 µM [28]: 85.5%; growth, % of control at 1 µM [29]: 99%; growth, % of control at 10 µM [30]: 61.7%; GI50 [31]: 900 nM; GI50 [32]: 770 nM; GI50 [33]: > 10000 nM; GI50 [34]: 1750 nM; GI50 [35]: 1640 nM; GI50 [36]: 470 nM |
| CCCCCCCCCCCCCCCC(=O)N(C)CCC[N+](C)(C)Cc1ccccc1 | 105% | 110% | 50.1% | -29.5% | -9.77% | 85.3% | 87.3% | 87.3% | 13.2% | 41% | 96.9% | 79.6% | 90.9% | 47.9% | -10.8% | 91.3% | 85.2% | 25% | 91.6% | -8.96% | growth, % of control at 0.1 µM [21]: 87.8%; growth, % of control at 1 µM [22]: 70.9%; growth, % of control at 0.3 µM [23]: 94.9%; growth, % of control at 3 µM [24]: 24.4%; growth, % of control at 0.1 µM [25]: 91.2%; growth, % of control at 10 µM [26]: 4.74%; growth, % of control at 0.3 µM [27]: 96.6%; growth, % of control at 3 µM [28]: 91.4%; growth, % of control at 1 µM [29]: 96.5%; growth, % of control at 10 µM [30]: 91%; GI50 [31]: 1110 nM; GI50 [32]: 520 nM; GI50 [33]: > 10000 nM; GI50 [34]: 1300 nM; GI50 [35]: 1350 nM; GI50 [36]: 850 nM |
| C=CC[N+](C)(C)CCCN(C)C(=O)CCCCCCCCCCCCC | 82.8% | 80.1% | 32.1% | -1.98% | 4.58% | 99.8% | 98.9% | 86.8% | 15.5% | 48.3% | 104% | 96% | 96.8% | 67% | 14.3% | 85.7% | 88.5% | 12.2% | 55.6% | -7.17% | growth, % of control at 0.1 µM [21]: 93.3%; growth, % of control at 1 µM [22]: 35.4%; growth, % of control at 0.3 µM [23]: 82.3%; growth, % of control at 3 µM [24]: -10.8%; growth, % of control at 0.1 µM [25]: 90.4%; growth, % of control at 10 µM [26]: -20.4%; growth, % of control at 0.3 µM [27]: 82.4%; growth, % of control at 3 µM [28]: 79.4%; growth, % of control at 1 µM [29]: 92.8%; growth, % of control at 10 µM [30]: 53.2%; GI50 [31]: 460 nM; GI50 [32]: 280 nM; GI50 [33]: > 10000 nM; GI50 [34]: 1890 nM; GI50 [35]: 1350 nM; GI50 [36]: 310 nM |
| CCCCCCCCCCCCCCCC(=O)N(C)CCC[N+](C)(C)CC | 77.8% | 101% | 7.32% | -37.1% | -18.5% | 98.7% | 97.7% | 73.3% | 19% | 47.2% | 95.1% | 62.3% | 95% | 41.5% | 15.7% | 100% | 103% | 31.2% | 62.9% | -15.5% | growth, % of control at 0.1 µM [21]: 105%; growth, % of control at 1 µM [22]: 44.6%; growth, % of control at 0.3 µM [23]: 101%; growth, % of control at 3 µM [24]: 1.57%; growth, % of control at 0.1 µM [25]: 95.6%; growth, % of control at 10 µM [26]: -17.2%; growth, % of control at 0.3 µM [27]: 98.3%; growth, % of control at 3 µM [28]: 69.2%; growth, % of control at 1 µM [29]: 84.4%; growth, % of control at 10 µM [30]: 40.3%; GI50 [31]: 780 nM; GI50 [32]: 220 nM; GI50 [33]: 3420 nM; GI50 [34]: 1020 nM; GI50 [35]: 1380 nM; GI50 [36]: 490 nM |
| C=CC[N+](C)(C)CCCN(C)C(=O)CCCCCCCCCCCCCCC | 92.8% | 105% | 28.1% | -30.4% | -13.9% | 86.5% | 88.3% | 66% | 11.6% | 33.8% | 81% | 53.3% | 77.3% | 30% | -6.41% | 94.7% | 93.2% | 23.9% | 65.5% | -13.6% | growth, % of control at 0.1 µM [21]: 98.5%; growth, % of control at 1 µM [22]: 41.9%; growth, % of control at 0.3 µM [23]: 98%; growth, % of control at 3 µM [24]: 7.93%; growth, % of control at 0.1 µM [25]: 97.4%; growth, % of control at 10 µM [26]: -11.9%; growth, % of control at 0.3 µM [27]: 103%; growth, % of control at 3 µM [28]: 81.2%; growth, % of control at 1 µM [29]: 103%; growth, % of control at 10 µM [30]: 58%; GI50 [31]: 680 nM; GI50 [32]: 360 nM; GI50 [33]: > 10000 nM; GI50 [34]: 470 nM; GI50 [35]: 800 nM; GI50 [36]: 430 nM |
